Laboratory results from publication PMC8728736, “A Reactivity-Based ^18F-Labeled Probe for PET Imaging of Oxidative Stress in Chemotherapy-Induced Cardiotoxicity” (Molecular Pharmaceutics, 2021).

How the values were obtained:
[1] = Reactivity of 18F-FPBT to reactive oxygen species: peroxynitrite; settings: 3-morpholinosydnomine 100 μM, 5 min
Procedure: (§1) ^18F-FPBT (0.5–2.0 MBq) was reacted with potassium superoxide (source of superoxide, 1 mg), hydrogen peroxide (100 μM), Fenton-reaction-generated hydroxyl radicals (100 μM), iron(II) sulfate heptahydrate (100 μM), tert-butyl hydroperoxide (100 μM), tert-butoxy radical (100 μM), and 3-morpholinosydnomine (source of peroxynitrite (100 μM)) for 5 min or diethylamine NONOate (source of nitric oxide, 100 μM) for 30 min at room temperature, after which it was subjected to radio-HPLC analysis and % oxidation was calculated.

[2] = Reactivity of 18F-FPBT to reactive oxygen species: nitric oxide; settings: diethylamine NONOate 100 μM, 30 min
Procedure: as §1

[3] = Post-mortem biodistribution in healthy rats; type: in vivo, Wistar rats; settings: for Ex vivo biodistribution, Blood / Ex vivo biodistribution, Bone / Ex vivo biodistribution, Brain / Ex vivo biodistribution, Heart / Ex vivo biodistribution, Kidney / Ex vivo biodistribution, Large Intestine / Ex vivo biodistribution, Liver / Ex vivo biodistribution, Lung / Ex vivo biodistribution, Muscle / Ex vivo biodistribution, Spleen / Ex vivo biodistribution, Urine / Ex vivo biodistribution, Small Intestine: healthy rats, mean ± SD, n = 3
Procedure: Wistar rats (male, 319 ± 20 g) were injected intravenously via the tail vein with either ^18F-FPBT (1.0 ± 0.4 MBq) or ^18F-FPBT-Ox (1.1 ± 0.5 MBq). The animals were sacrificed by cervical dislocation at 1, 5, or 30 min postinjection (n = 3/group). Organs and tissues of interest were harvested and weighed, and the radioactivity was measured in a gamma counter. Organ uptake was calculated as the percentage injected dose per gram of tissue mass (% ID/g). Data are reported as mean ± SD.

[4] = Vial stability by radio-HPLC; type: physicochemical; settings: room temperature, 4 h
Procedure: ^18F-FPBT (1–4 MBq) in 100% ethanol or 5% ethanol in PBS containing sodium ascorbate (0.01 mg/mL) was kept at room temperature for 4 h and then analyzed by radio-HPLC.

[5] = Reactivity of 18F-FPBT to reactive oxygen species: superoxide; settings: potassium superoxide, 5 min, ascorbate 1 mg/mL, n = 3
Procedure: as §1

[6] = Reactivity of 18F-FPBT to other biologically relevant ROS; settings: ROS other than superoxide
Procedure: as §1

[7] = PET/CT imaging of healthy mice; type: in vivo, C57BL/6 mice; settings: iv
Procedure: C57BL/6 mice (male, 25 ± 2 g, n = 3) were placed on the PET scanner bed and injected with ^18F-FPBT (1.7 ± 0.4 MBq) through the tail vein at the start time of PET acquisition. A dynamic PET scan was performed for 60 min, followed by a CT scan and ex vivo biodistribution. The PET data was reconstructed into 5 frames of 60 s, 3 frames of 300 s, and 4 frames of 600 s. Regions of interest (ROIs) were drawn and quantified using VivoQuant software (v3.0, inviCRO, LLC, Boston, USA). Organ uptake was calculated as standard uptake values (SUV), and data are reported as mean ± SD.

[8] = Reactivity of 18F-FPBT to reactive oxygen species: hydroxyl radical; settings: Fenton-reaction-generated hydroxyl radicals 100 μM, 5 min
Procedure: as §1

[9] = Lipophilicity, partition between 1-octanol and PBS; type: physicochemical; settings: 1-octanol/PBS, pH 7.4, 1-octanol/PBS pH 7.4, shake-flask, n = 6; read-out: LogD
Procedure: The lipophilicity of ^18F-FPBT and ^18F-FPBT-Ox was determined by a conventional partition method between 1-octanol and phosphate buffered saline (PBS), pH 7.4. 1-Octanol was presaturated with PBS before use. The radiotracer (∼2 KBq) was added to a mixture of PBS (200 μL) and 1-octanol (200 μL) in a 1.5 mL Eppendorf vial (n = 6). The mixture was vigorously agitated at rt for 5 min and then centrifuged at 3000 g for 10 min. A 100 μL aliquot from each layer was drawn for measurement in a gamma counter. The LogDoct/PBS was calculated as follows: log [(cpm in the 1-octanol layer – cpm 1-octanol blank)/(cpm in the PBS layer – cpm PBS blank)].

[10] = PET/CT imaging in rat model of doxorubicin-induced cardiotoxicity; type: in vivo, Wistar rats; settings: PET, 30 min scan, doxorubicin n = 6, saline n = 4
Procedure: Male Wistar rats (280–300 g) were used in all experiments. Subcutaneous 7 day osmotic pumps (Alzet), containing either doxorubicin (Cambridge Bioscience, 30 mg/kg cumulative dose) or vehicle (sterile 0.9% NaCl), were inserted into rats under 2% isoflurane in 100% oxygen.
Wistar rats that had received either doxorubicin treatment (male, 267 ± 19 g, n = 6) or saline (male, 303 ± 9 g, n = 4) via osmotic pumps for 7 days were injected with ^18F-FPBT (2.6 ± 1.5 MBq) via the tail vein on the PET/CT scanner bed. The time of injection coincided with the beginning of PET acquisition in order to obtain dynamic tracer uptake information. PET scans with the chest area in the field of vision were acquired for 30 min, followed by a CT scan, after which the animals were sacrificed and organs harvested, weighed, and gamma-counted as for the biodistribution protocol. The hearts were frozen in liquid nitrogen for gamma counting and oxidative stress biomarker assays. The PET data was reconstructed into three frames: 0–3 min, 3–10 min, and 10–30 min. For the time–activity curve, the PET data was reconstructed into 1 min per frame in the first 5 min and then 5 min per frame between 5 and 30 min. […] Radioactivity uptake in the heart was calculated as a standard uptake value ratio (SUVR) between left ventricle and blood. […]

## [18F]CCCN1c2ccccc2SC1c1ccccc1 (stereo not drawn) [^18F-FPBT, 3-(3-[^18F]Fluoropropyl)-2-phenyl-2,3-dihydrobenzo[d]thiazole]
[1]
  Reactivity to peroxynitrite: some reactivity
[2]
  Reactivity to nitric oxide: some reactivity
[3]; healthy Wistar rats, iv
  Route of clearance / excretion, in words: excreted by both renal and hepatobiliary routes
  Uptake by major organs (brain, heart, lung, spleen), in words: rapid uptake
[3]; iv, 1 min
  Ex vivo biodistribution, Blood: 0.12 ± 0.05 % ID/g
  Ex vivo biodistribution, Bone: 0.14 ± 0.01 % ID/g
  Ex vivo biodistribution, Brain: 0.57 ± 0.04 % ID/g
  Ex vivo biodistribution, Heart: 1.33 ± 0.15 % ID/g
  Ex vivo biodistribution, Kidney: 1.58 ± 0.11 % ID/g
  Ex vivo biodistribution, Large Intestine: 0.21 ± 0.03 % ID/g
  Ex vivo biodistribution, Liver: 1.52 ± 0.25 % ID/g
  Ex vivo biodistribution, Lung: 0.66 ± 0.15 % ID/g
  Ex vivo biodistribution, Muscle: 0.08 ± 0.03 % ID/g
  Ex vivo biodistribution, Spleen: 0.67 ± 0.09 % ID/g
  Ex vivo biodistribution, Urine: 0.02 ± 0.01 % ID/g
[3]; iv, 5 min
  Ex vivo biodistribution, Blood: 0.06 ± 0.00 % ID/g
  Ex vivo biodistribution, Bone: 0.18 ± 0.18 % ID/g
  Ex vivo biodistribution, Brain: 0.33 ± 0.04 % ID/g
  Ex vivo biodistribution, Heart: 0.37 ± 0.08 % ID/g
  Ex vivo biodistribution, Kidney: 0.60 ± 0.27 % ID/g
  Ex vivo biodistribution, Large Intestine: 0.13 ± 0.02 % ID/g
  Ex vivo biodistribution, Liver: 1.75 ± 0.19 % ID/g
  Ex vivo biodistribution, Lung: 0.34 ± 0.03 % ID/g
  Ex vivo biodistribution, Muscle: 0.05 ± 0.03 % ID/g
  Ex vivo biodistribution, Small Intestine: 0.53 ± 0.31 % ID/g
  Ex vivo biodistribution, Spleen: 0.18 ± 0.01 % ID/g
  Ex vivo biodistribution, Urine: 1.22 ± 0.89 % ID/g
[3]; iv, 30 min
  Ex vivo biodistribution, Blood: 0.03 ± 0.00 % ID/g
  Ex vivo biodistribution, Bone: 0.13 ± 0.02 % ID/g
  Ex vivo biodistribution, Brain: 0.06 ± 0.01 % ID/g
  Ex vivo biodistribution, Heart: 0.20 ± 0.04 % ID/g
  Ex vivo biodistribution, Kidney: 0.17 ± 0.00 % ID/g
  Ex vivo biodistribution, Large Intestine: 0.10 ± 0.03 % ID/g
  Ex vivo biodistribution, Liver: 0.47 ± 0.13 % ID/g
  Ex vivo biodistribution, Lung: 0.18 ± 0.01 % ID/g
  Ex vivo biodistribution, Muscle: 0.08 ± 0.02 % ID/g
  Ex vivo biodistribution, Small Intestine: 5.01 ± 0.90 % ID/g
  Ex vivo biodistribution, Spleen: 0.05 ± 0.01 % ID/g
  Ex vivo biodistribution, Urine: 3.79 ± 2.12 % ID/g
[3]; rats and mice
  Defluorination in vivo (radioactivity accumulation in the bone): inert toward defluorination
[4]; 5% ethanol in PBS with ascorbic acid (0.01 mg/mL)
  Vial stability: stable
[4]; pure ethanol
  Vial stability: stable
[5]
  % oxidation by superoxide in the presence of ascorbate: 31 ± 5%
[6]
  Reactivity to other biologically relevant ROS: little or no reactivity
[7]
  Background retention in heart, lungs, spleen and brain: low nonspecific background retention
  Time to excretion by renal and hepatobiliary routes: less than 1 h
[7]; dynamic PET 60 min
  Blood clearance: fast blood clearance
[8]
  Reactivity to hydroxyl radical: inert
[9]
  LogD: 1 ± 0.08
[10]
  SUVR LV/blood (heart uptake) of doxorubicin-treated rats compared to vehicle control group: statistically significantly (p < 0.05) higher
[10]; listed as 18F-FBPT
  SUVR LV/blood (heart uptake) of doxorubicin-treated rats compared to vehicle control group: significantly higher (P < 0.05) uptake
